What was measured:
guinea pigs = assay: Cough relieving against 15% citric acid spray in guinea pigs, one hour after administration; type: in vivo; details: Cavia porcellus, im, 1 h, one hour after 50 mg/kg i.m., % related to the control, read-out: Cough inhibition Q %
Method: Q = Cough relieving induced by 15% citric acid spray in guinea pigs one
hour after administration of the substances (50 mg/kg, i.m.) expressed in
% related to the control.

in vivo = details: mouse
[1] = system: trachea stria isolated from rabbit; assay: Bronchial spasm induced by histamine, in vitro on isolated trachea stria
From the text: (§1) A special group of the compounds of the formula I are those compounds in which R1 stands for alkyl, aralkyl, or aryl. […] Path. […] This activity is significant in relieving cough of the asthmatic type.

guinea pig = assay: Bronchial spasm induced by histamine, in vivo according to Konzett and Rossler
From the text: as §1

[2] = system: spasm caused by acetyl choline or serotonine; assay: Spasm caused by acetyl choline or serotonine
From the text: as §1

[3] = system: rat paw carrageenin oedema; assay: Rat paw carrageenin oedema test; type: in vivo; details: i.m. administration, compared with indomethacin
From the text: Another special group of the compounds according to the invention are the compounds having an alkyl amino group in place of R1. […] This activity is important in cough relieving accompanied by inflammation in the respiration system.

[4] = General pharmacological activity (cough relieving, bronchodilatory, antiasthmatic, antiinflammatory); details: in vivo

`Cn1c(=O)c2c(ncn2Cc2noc(CCN3CCCCC3)n2)n(C)c1=O` showed an inhibition in vivo at 50 mg/kg (guinea pigs) of 54.1%, an LD50 (in vivo; iv) of 240 mg/kg and an LD50 (in vivo; po) of 1550 mg/kg.

`Cn1c(=O)c2c(ncn2Cc2noc(CCN3CCOCC3)n2)n(C)c1=O` showed an inhibition in vivo at 50 mg/kg (guinea pigs) of 55.4%, an LD50 (in vivo; iv) of 230 mg/kg and an LD50 (in vivo; po) of 1530 mg/kg.

With `CN1CCN(CCc2nc(Cn3cnc4c3c(=O)n(C)c(=O)n4C)no2)CC1` the inhibition in vivo at 50 mg/kg (guinea pigs) was 54.5%, the LD50 (in vivo; iv) was 224 mg/kg and the LD50 (in vivo; po) was 1670 mg/kg.

For `Cn1c(=O)c2c(ncn2CCc2noc(CCN3CCOCC3)n2)n(C)c1=O`, the inhibition in vivo at 50 mg/kg (guinea pigs) was 48.6%, the LD50 (in vivo; iv) was 217 mg/kg and the LD50 (in vivo; po) was 2600 mg/kg.

Work on `Cn1c(=O)c2c(ncn2CCCc2noc(CCN3CCOCC3)n2)n(C)c1=O` yielded an inhibition in vivo at 50 mg/kg (guinea pigs) of 47.7%, an LD50 (in vivo; iv) of 220 mg/kg and an LD50 (in vivo; po) of 1900 mg/kg.

`CN1CCN(CCc2nc(CC(O)Cn3cnc4c3c(=O)n(C)c(=O)n4C)no2)CC1` (stereo not shown) showed an inhibition in vivo at 50 mg/kg (guinea pigs) of 48.6%, an LD50 (in vivo; iv) of 215 mg/kg and an LD50 (in vivo; po) of 1800 mg/kg.

With `CC(C)NCCc1nc(CCn2cnc3c2c(=O)n(C)c(=O)n3C)no1` [(CH2)2 (CH2)2 NHi.Pr] the inhibition in vivo at 50 mg/kg (guinea pigs) was 54.7%, the LD50 (in vivo; iv) was 200 mg/kg and the LD50 (in vivo; po) was 1750 mg/kg.

`COc1ccc2c3c1O[C@H]1[C@@H](O)C=C[C@H]4[C@@H](C2)N(C)CC[C@@]341` [Codeine, reference compound] showed an inhibition in vivo at 50 mg/kg (guinea pigs) of 50% and an LD50 (in vivo; iv) of 54 mg/kg.

In the case of `Cc1nc(Cn2cnc3c2c(=O)n(C)c(=O)n3C)no1` [Example 1, 7-[(5-methyl-1,2,4-oxadiazol-3-yl)-methyl]-theophylline], the inhibition in vivo at 50 mg/kg (guinea pigs) was 54.3%, the “bronchial spasm induced by histamine (in vitro)” value [1] was “decreases the bronchial spasm induced by histamine” and the duration of activity (guinea pig; histamine-induced bronchial spasm, compared with theophylline ethylene diamine) was “considerably longer than in case of theophylline ethylene diamine”. The “bronchial spasm induced by histamine (in vivo)” value (guinea pig; in vivo, guinea pig, Konzett and Rossler, histamine) was “decreases the bronchial spasm induced by histamine”, the “spasm caused by acetyl choline” value ([2]; acetyl choline) was “prevents the spasm caused by acetyl choline or serotonine” and the “spasm caused by serotonine” value ([2]; serotonine) was “prevents the spasm caused by acetyl choline or serotonine”.

For `CCN(CC)CCc1nc(Cn2cnc3c2c(=O)n(C)c(=O)n3C)no1` [Example 4, 7-[{5-(2-diethylamino-ethan-1-yl)-1,2,4-oxadiazol-3-yl}-methyl]-theophylline], the inhibition in vivo at 50 mg/kg (guinea pigs) was 56.7%, the anti-inflammatory activity [3] was “strong (comparable with indomethacin) anti-inflammatory activity” and the “pharmacological activity in words” value [4] was “cough relieving and bronchodilatory activity”. For the same compound, the LD50 (in vivo; iv) was 215 mg/kg and the LD50 (in vivo; po) was 1400 mg/kg.

Work on `CCN(CC)CCc1nc(CCCn2cnc3c2c(=O)n(C)c(=O)n3C)no1` [Example 12, 7-[3-5-(2-diethylamino-ethan-1-yl)-1,2,4-oxadiazol-3-yl-propan-1-yl]-theophylline-maleinate] yielded an inhibition in vivo at 50 mg/kg (guinea pigs) of 51.5%, an LD50 (in vivo; iv) of 237 mg/kg and an LD50 (in vivo; po) of 2250 mg/kg.

Compound `CCCc1nc(Cn2cnc3c2c(=O)n(C)c(=O)n3C)no1` [Example 18] has an inhibition in vivo at 50 mg/kg (guinea pigs) of 51.1%, an LD50 (in vivo; iv) of 390 mg/kg and an LD50 (in vivo; po) of 1400 mg/kg.

`c1ccc(C(Cc2noc(CCN3CCCCC3)n2)c2ccccc2)cc1` [Prenoxdiazine, reference compound] showed an inhibition in vivo at 50 mg/kg (guinea pigs) of 44.5%, an LD50 (in vivo; iv) of 34 mg/kg and an LD50 (in vivo; po) of 920 mg/kg.
